For the assay, the system named is BDF1 mice, Adenocarcinoma 755 s.c., tumor weight T/C. Nature of the assay: NCI In Vivo Anticancer Drug Screen. Data for tumor model Adenocarcinoma 755 (subcutaneous) in B6D2F1 (BDF1) mice. As to conditions: endpoint: mean tumor weight, higher = larger tumour. The procedure, abridged: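 Compound activity was tested in mice carrying transplanted tumors. Survival or tumor size was measured, and each value is the treated-group measurement divided by that of the vehicle-treated control group (T/C).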

Setting [1] is: dose: 62.5 mg/kg/injection, schedule: Q01DX011 (ip), vehicle: methylcellulose (MC).
The mark [2] stands for this setting: dose: 125.0 mg/kg/injection, schedule: Q01DX011 (ip), vehicle: methylcellulose (MC).
Setting [3] is: dose: 250.0 mg/kg/injection, schedule: Q01DX011 (ip), vehicle: methylcellulose (MC).
Where [4] appears, read: dose: 12.5 mg/kg/injection, schedule: Q01DX011 (ip), vehicle: methylcellulose (MC).
Setting [5] is: dose: 25.0 mg/kg/injection, schedule: Q01DX011 (ip), vehicle: methylcellulose (MC).
Where [6] appears, read: dose: 50.0 mg/kg/injection, schedule: Q01DX011 (ip), vehicle: methylcellulose (MC).
[7] abbreviates: dose: 100.0 mg/kg/injection, schedule: Q01DX011 (ip), vehicle: methylcellulose (MC).
Setting [8] is: dose: 200.0 mg/kg/injection, schedule: Q01DX011 (ip), vehicle: saline.

Several values for one entry are separate records, joined by “and”; a condition that tells them apart may be missing. Equal values may be shown once.

As usually defined, the T/C is the result in the treated group divided by that in the control group, in per cent. Regarding `c1ncc2[nH]cnc2n1`, the T/C is 71 % of control (dose: 27.33 mg/kg/injection, schedule: Q01DX011 (ip), vehicle: carboxymethylcellulose (CMC)); 80 % of control (dose: 49.34 mg/kg/injection, schedule: Q01DX011 (ip), vehicle: carboxymethylcellulose (CMC)); 82 % of control (dose: 54.67 mg/kg/injection, schedule: Q01DX011 (ip), vehicle: carboxymethylcellulose (CMC)); 68 % of control under setting [1]; 71 % of control (dose: 98.68 mg/kg/injection, schedule: Q01DX011 (ip), vehicle: carboxymethylcellulose (CMC)); 91 % of control (dose: 109.35 mg/kg/injection, schedule: Q01DX011 (ip), vehicle: carboxymethylcellulose (CMC)). For the same compound, the T/C by setting is: under setting [2], 57 % of control; (dose: 173.2 mg/kg/injection, schedule: Q01DX011 (ip), vehicle: carboxymethylcellulose (CMC)) 101 % of control; (dose: 197.35 mg/kg/injection, schedule: Q01DX011 (ip), vehicle: carboxymethylcellulose (CMC)) 69 % of control; (dose: 218.7 mg/kg/injection, schedule: Q01DX011 (ip), vehicle: carboxymethylcellulose (CMC)) 123 % of control; under setting [3], 54 % of control; (dose: 288.66 mg/kg/injection, schedule: Q01DX011 (ip), vehicle: carboxymethylcellulose (CMC)) 72 % of control. The T/C (dose: 394.7 mg/kg/injection, schedule: Q01DX011 (ip), vehicle: carboxymethylcellulose (CMC)) is 35 % of control.

Regarding `C=CC(=O)NCO`, the T/C by setting is: (dose: 100.0 mg/kg/injection, schedule: Q01DX011 (ip), vehicle: other) 86 % of control; (dose: 150.0 mg/kg/injection, schedule: Q01DX011 (ip), vehicle: other) 89 % of control; (dose: 200.0 mg/kg/injection, schedule: Q01DX011 (ip), vehicle: other) 88 % of control.

Turning to `COc1cc(C=O)cc(O)c1O`, the T/C was 72 % of control under setting [1], 58 % of control under setting [2] and 40 % of control under setting [3].

As to `Cn1cnc2c(ncn2C2CC(O)C(CO)O2)c1=O` (centres undefined), the T/C is 105 % of control (dose: 120.0 mg/kg/injection, schedule: Q01DX011 (ip), vehicle: saline) and 98 % of control (dose: 240.0 mg/kg/injection, schedule: Q01DX011 (ip), vehicle: saline).

As to `Nc1nc(N)c2[nH]cnc2n1`, the T/C was 94 % of control (dose: 17.49 mg/kg/injection, schedule: Q01DX011 (ip), vehicle: carboxymethylcellulose (CMC)); 114 % of control (dose: 17.62 mg/kg/injection, schedule: Q01DX011 (ip), vehicle: carboxymethylcellulose (CMC)); 93 % of control (dose: 34.98 mg/kg/injection, schedule: Q01DX011 (ip), vehicle: carboxymethylcellulose (CMC)); 91 % of control (dose: 35.25 mg/kg/injection, schedule: Q01DX011 (ip), vehicle: carboxymethylcellulose (CMC)); 103 % of control (dose: 69.95 mg/kg/injection, schedule: Q01DX011 (ip), vehicle: carboxymethylcellulose (CMC)); 108 % of control (dose: 70.5 mg/kg/injection, schedule: Q01DX011 (ip), vehicle: carboxymethylcellulose (CMC)). Moreover, where the note is “dose: 141.0 mg/kg/injection, schedule: Q01DX011 (ip), vehicle: carboxymethylcellulose (CMC)”, the T/C was 47 % of control.

In the case of `O=c1[nH]c(S(=O)(=O)F)nc2nc[nH]c12`, the T/C was 104 % of control (dose: 25.0 mg/kg/injection, schedule: Q01DX011 (ip), vehicle: carboxymethylcellulose (CMC)) and 53 % of control (dose: 75.0 mg/kg/injection, schedule: Q01DX011 (ip), vehicle: carboxymethylcellulose (CMC)).

Regarding `CN(Cc1ccccc1)c1ncnc2[nH]ncc12`, the T/C is 42 % of control under setting [4], 62 % of control under setting [5], 10 % of control under setting [6] and 2 % of control under setting [7].

As to `Cn1c(=O)c2c(nc(N/N=C/C(Cl)Cl)n2C)n(C)c1=O`, the T/C (dose: 2.8 mg/kg/injection, schedule: Q01DX011 (ip), vehicle: methylcellulose (MC)) is 79 % of control and the T/C (dose: 8.3 mg/kg/injection, schedule: Q01DX011 (ip), vehicle: methylcellulose (MC)) was 71 % of control.

`CS(=O)(=O)OCCC(=O)NCCCCCNC(=O)CCOS(C)(=O)=O`: the T/C runs as follows: (dose: 57.0 mg/kg/injection, schedule: Q01DX011 (ip), vehicle: methylcellulose (MC)) 64 % of control; (dose: 113.0 mg/kg/injection, schedule: Q01DX011 (ip), vehicle: methylcellulose (MC)) 53 % of control; (dose: 225.0 mg/kg/injection, schedule: Q01DX011 (ip), vehicle: methylcellulose (MC)) 30 % of control.

As for `c1ccc2nc(-c3cc4ccccc4s3)ccc2c1`, the T/C was 42 % of control (dose: 133.0 mg/kg/injection, schedule: Q01DX011 (ip), vehicle: carboxymethylcellulose (CMC)); 42 % of control (dose: 133.0 mg/kg/injection, schedule: Q01DX011 (ip), vehicle: saline); 53 % of control (dose: 200.0 mg/kg/injection, schedule: Q01DX011 (ip), vehicle: carboxymethylcellulose (CMC)); 39 % of control under setting [8]; 24 % of control (dose: 300.0 mg/kg/injection, schedule: Q01DX011 (ip), vehicle: carboxymethylcellulose (CMC)); 34 % of control (dose: 300.0 mg/kg/injection, schedule: Q01DX011 (ip), vehicle: saline). Besides, the T/C (dose: 450.0 mg/kg/injection, schedule: Q01DX011 (ip), vehicle: saline) is 21 % of control.

`Nc1nc(N)c(N)c(N)n1`: the T/C is, setting by setting: (dose: 50.0 mg/kg/injection, schedule: Q01DX011 (ip), vehicle: saline) 82 % of control; under setting [8], 92 % of control; (dose: 400.0 mg/kg/injection, schedule: Q01DX011 (ip), vehicle: saline) 90 % of control.

For `CS(=O)(=O)OCCCCCCCCCOS(C)(=O)=O`, the T/C (dose: 2.0 mg/kg/injection, schedule: Q01DX011 (ip), vehicle: carboxymethylcellulose (CMC)) was 35 % of control; the T/C (dose: 4.0 mg/kg/injection, schedule: Q01DX011 (ip), vehicle: carboxymethylcellulose (CMC)) was 49 % of control; the T/C (dose: 8.0 mg/kg/injection, schedule: Q01DX011 (ip), vehicle: carboxymethylcellulose (CMC)) was 54 % of control; the T/C (dose: 16.0 mg/kg/injection, schedule: Q01DX011 (ip), vehicle: carboxymethylcellulose (CMC)) was 26 % of control; the T/C (dose: 28.0 mg/kg/injection, schedule: Q01DX011 (ip), vehicle: carboxymethylcellulose (CMC)) is 7 % of control.

On to `CC(=O)O[C@]1(C(C)=O)CC[C@H]2[C@@H]3C[C@H](C)C4=CC(=O)C=C[C@]4(C)[C@@]3(F)[C@@H](O)C[C@@]21C`, for which the T/C (dose: 4.5 mg/kg/injection, schedule: Q01DX011 (sc), vehicle: steriod suspending solution) is 95 % of control; the T/C (dose: 9.0 mg/kg/injection, schedule: Q01DX011 (sc), vehicle: steriod suspending solution) was 60 % of control; the T/C (dose: 15.0 mg/kg/injection, schedule: Q01DX011 (sc), vehicle: steriod suspending solution) was 54 % of control; the T/C (dose: 18.0 mg/kg/injection, schedule: Q01DX011 (sc), vehicle: steriod suspending solution) is 34 % of control; the T/C (dose: 30.0 mg/kg/injection, schedule: Q01DX011 (sc), vehicle: steriod suspending solution) is 34 % of control; the T/C (dose: 60.0 mg/kg/injection, schedule: Q01DX011 (sc), vehicle: steriod suspending solution) is 19 % of control. Further, the T/C runs as follows: (dose: 120.0 mg/kg/injection, schedule: Q01DX011 (sc), vehicle: steriod suspending solution) 8 % of control; (dose: 136.0 mg/kg/injection, schedule: Q01DX011 (sc), vehicle: steriod suspending solution) 17 % of control.

As for `O=C(NCCCl)N1CCN(C(=O)NCCCl)CC1`, the T/C is 55 % of control under setting [6]; 67 % of control under setting [7]; 39 % of control (dose: 200.0 mg/kg/injection, schedule: Q01DX011 (ip), vehicle: methylcellulose (MC)); 24 % of control (dose: 400.0 mg/kg/injection, schedule: Q01DX011 (ip), vehicle: methylcellulose (MC)).

With `CCCCn1cnc2c(SCc3ccncc3)nc(N)nc21`, the T/C (dose: 3.12 mg/kg/injection, schedule: Q01DX011 (ip), vehicle: methylcellulose (MC)) was 35 % of control; the T/C (dose: 6.25 mg/kg/injection, schedule: Q01DX011 (ip), vehicle: methylcellulose (MC)) is 106 % of control; the T/C under setting [4] was 19 % of control; the T/C under setting [5] was 1 % of control and 13 % of control.

Take `CC(C)CC(Nc1ncnc2nc[nH]c12)C(=O)O` (centres undefined): the T/C (dose: 12.0 mg/kg/injection, schedule: Q01DX011 (ip), vehicle: methylcellulose (MC)) was 110 % of control; the T/C under setting [5] was 96 % of control; the T/C under setting [6] is 101 % of control; the T/C under setting [7] was 60 % of control.

The values above are taken from PubChem BioAssay AID180 (DTP/NCI, 2004).
